# Legend:
# Experiment in all cases: Test C rice paddy
# BARNYARDGRASS = type: in vivo, Echinochloa crusgalli; settings: Echinochloa crus-galli, 504 h, 21 days, read-out: plant response
# Excerpt: (§1) Sixteen cm diameter Airlite plastic pots were partially filled with Tama slit loam soil and the soil saturated with water. Japonica and Indica rice seedlings a the 2.0 to 2.5 leaf stage were transplanted into 1/3 of the pots. Into another third of the pots were transplanted seedling or sprouted tubers of water plantain (Alisma trivale), Scripus (Scirpus paludosus), Cyperus (Cyperus esculentus), and arrowhead (Sagittaria spp.). The remaining pots were planted with barnyardgrass (Echinochloa crusgalli) seeds and sprouted tubes of water chestnut (Eleocharis spp.). These weeds all represent major rice weeds or genera of weeds important in rice. Three to four days after planting, the water level was raised to 3 cm (about 1200 ml/pot) and maintained a this level throughout the test. Chemical treatments were applied directly to the paddy water, within 24 hours of raising the water, after being formulated in a nonphytotoxic solvent. The pots were maintained in the greenhouse.
# WATERCHESTNUT = type: in vivo, Eleocharis spp.; settings: Eleocharis, 504 h, 21 days, read-out: plant response
# Excerpt: as §1
# ARROWHEAD = type: in vivo, Sagittaria spp.; settings: Sagittaria, 504 h, 21 days, read-out: plant response
# Excerpt: as §1
# SCIRPUS = type: in vivo, Scirpus paludosus; settings: Bolboschoenus maritimus, 504 h, 21 days, read-out: plant response
# Excerpt: as §1
# WATER PLAINTAIN = type: in vivo, Alisma trivale; settings: 504 h, 21 days, read-out: plant response
# Excerpt: as §1
# RICE JAP EFF = type: in vivo, Japonica rice; settings: Oryza sativa, 504 h, 21 days, read-out: plant response
# Excerpt: as §1
# RICE INDICA EFF = type: in vivo; settings: Oryza sativa, 504 h, 21 days, read-out: plant response
# Excerpt: as §1
smiles,measurement,setting,value
C=C(c1cccc(F)c1)C(O)(Cn1cncn1)c1ccc(F)cc1F (centres unmarked) [Example 18],pest or weed control at 64 g/ha,BARNYARDGRASS; 0064 G/HA,0%
same,pest or weed control at 125 g/ha,BARNYARDGRASS; 0125 G/HA,0%
same,pest or weed control at 250 g/ha,BARNYARDGRASS; 0250 G/HA,0%
same,pest or weed control at 500 g/ha,BARNYARDGRASS; 0500 G/HA,40%
same,pest or weed control at 1000 g/ha,BARNYARDGRASS; 1000 G/HA,60%
same,pest or weed control at 64 g/ha,WATERCHESTNUT; 0064 G/HA,0%
same,pest or weed control at 125 g/ha,WATERCHESTNUT; 0125 G/HA,0%
same,pest or weed control at 250 g/ha,WATERCHESTNUT; 0250 G/HA,0%
same,pest or weed control at 500 g/ha,WATERCHESTNUT; 0500 G/HA,40%
same,pest or weed control at 1000 g/ha,WATERCHESTNUT; 1000 G/HA,50%
same,pest or weed control at 64 g/ha,ARROWHEAD; 0064 G/HA,0%
same,pest or weed control at 125 g/ha,ARROWHEAD; 0125 G/HA,0%
same,pest or weed control at 250 g/ha,ARROWHEAD; 0250 G/HA,0%
same,pest or weed control at 500 g/ha,ARROWHEAD; 0500 G/HA,20%
same,pest or weed control at 1000 g/ha,ARROWHEAD; 1000 G/HA,35%
same,pest or weed control at 64 g/ha,SCIRPUS; 0064 G/HA,0%
same,pest or weed control at 125 g/ha,SCIRPUS; 0125 G/HA,0%
same,pest or weed control at 250 g/ha,SCIRPUS; 0250 G/HA,0%
same,pest or weed control at 500 g/ha,SCIRPUS; 0500 G/HA,0%
same,pest or weed control at 1000 g/ha,SCIRPUS; 1000 G/HA,0%
same,pest or weed control at 64 g/ha,WATER PLAINTAIN; 0064 G/HA,0%
same,pest or weed control at 125 g/ha,WATER PLAINTAIN; 0125 G/HA,0%
same,pest or weed control at 250 g/ha,WATER PLAINTAIN; 0250 G/HA,0%
same,pest or weed control at 500 g/ha,WATER PLAINTAIN; 0500 G/HA,20%
same,pest or weed control at 1000 g/ha,WATER PLAINTAIN; 1000 G/HA,40%
same,pest or weed control at 64 g/ha,RICE JAP EFF; 0064 G/HA,0%
same,pest or weed control at 125 g/ha,RICE JAP EFF; 0125 G/HA,0%
same,pest or weed control at 250 g/ha,RICE JAP EFF; 0250 G/HA,0%
same,pest or weed control at 500 g/ha,RICE JAP EFF; 0500 G/HA,50%
same,pest or weed control at 1000 g/ha,RICE JAP EFF; 1000 G/HA,70%
same,pest or weed control at 64 g/ha,RICE INDICA EFF; 0064 G/HA,0%
same,pest or weed control at 125 g/ha,RICE INDICA EFF; 0125 G/HA,0%
same,pest or weed control at 250 g/ha,RICE INDICA EFF; 0250 G/HA,0%
same,pest or weed control at 500 g/ha,RICE INDICA EFF; 0500 G/HA,30%
same,pest or weed control at 1000 g/ha,RICE INDICA EFF; 1000 G/HA,50%

# Source: patent US4965280A, “Antifungal carbinols” (E. I. Du Pont de Nemours and Company, priority 1989, dated 1990)
